The values that follow come from patent US20020016351A1, “New crystals of celecoxib” (priority 2000, published 2002).

The nature of data set [1]: bulk density of the crystals. Particulars: typical and characteristic density of the celecoxib crystals. The data set is classed as physicochemical. The source says:
(§1) One of the main disadvantages of the needle-like crystals of Form II mentioned in WO 00/32189 is their low bulk density. It was found, that the crystals of the invention's Form I are distinctly denser in comparison to the crystals of Form II prepared according to the methods as given in International Applications WO 95/15316 and WO 96/37476. The following densities are typical and characteristic for the crystals of Form I and II, respectively: […]

A short description of data set [2]: tap density of the crystals. Particulars: typical and characteristic density of the celecoxib crystals. The data set is classed as physicochemical.
From the text: as §1

With `Cc1ccc(-c2cc(C(F)(F)F)nn2-c2ccc(S(N)(=O)=O)cc2)cc1` [Form I, 4-[5-(4-methylphenyl)-3-(trifluoromethyl)-1H-pyrazol-1-yl]benzenesulfonamide], the bulk density result in data set [1] is listed as “≧about 0.270 g/ml”. Besides, the tap density entry in data set [2] is recorded as “≧about 0.360 g/ml”.
Consider `Cc1ccc(-c2cc(C(F)(F)F)nn2-c2ccc(S(N)(=O)=O)cc2)cc1` [Form II, 4-[5-(4-methylphenyl)-3-(trifluoromethyl)-1H-pyrazol-1-yl]benzenesulfonamide], for which the bulk density result in data set [1] is given as “about 0.130 g/ml”. For the same compound, in data set [2], the tap density result was “about 0.180 g/ml”.
